# In PMC3561933 (Bioorganic & medicinal chemistry letters, 2012):
# Experiments:
# HIV-1 Y181C variant [1] = settings: ref 7b, cited from earlier work
# HIV-1 Y181C variant [2] = assay type: cell-based; settings: relative to 1f
# [3] = observed; cited from earlier work
# [4] = test system: HIV-1 strains with Tyr181Cys (Y181C) mutation; settings: cited from earlier work
# [5] = test system: HIV-1 Y181C combined with Lys103Asn; settings: cited from earlier work
smiles,measurement,setting,value
N#Cc1ccc(Nc2ncc(Cc3c(F)cccc3F)o2)cc1 [Compound 1a],activity towards a Y181C-containing strain,HIV-1 Y181C variant [1]; earlier work,no activity
CCc1cc(F)c(Cc2cnc(Nc3ccc(C#N)c(Cl)c3)o2)c(F)c1 [Compound 1e],gain in WT potency over 1b (factor),HIV-1 IIIB (wild-type); relative to 1b,5
N#Cc1ccc(Nc2ncc(Cc3c(F)cc(C4CC4)cc3F)o2)cc1Cl [Compound 1g],factor less active against WT virus than 1f,HIV-1 IIIB (wild-type); relative to 1f,5
same,fold less active towards Y181C variant than 1f,HIV-1 Y181C variant [2],200 fold
Fc1cccc(F)c1Cc1cnc(Nc2ccc(Oc3cccnc3)c(Cl)c2)o1 [Compound 2a],EC50,"HIV-1 Y181C variant [1]; read-out: EC50 for the Y181C variant, earlier work",3000 nM
CCc1cc(F)c(Cc2cnc(Nc3ccc(Oc4cccnc4)c(Cl)c3)o2)c(F)c1 [Compound 2b],fold activity boost against WT virus in comparison to 2a,HIV-1 IIIB (wild-type); relative to 2a,5 fold
c1ccc(C2CC2)cc1 [cyclopropylbenzene],octanol/water log P,[3],3.3
CC(C)Nc1cccnc1N1CCN(C(=O)c2cc3cc(NS(C)(=O)=O)ccc3[nH]2)CC1 [delavirdine],activity towards HIV-1 strains with Y181C mutation,[4],inactive
O=C1Nc2ccc(Cl)cc2[C@@](C#CC2CC2)(C(F)(F)F)O1 [efavirenz],activity towards Y181C combined with Lys103Asn,[5],debilitated
CC(C)c1ccccc1 [isopropylbenzene],octanol/water log P,[3],3.7
Cc1ccnc2c1NC(=O)c1cccnc1N2C1CC1 [nevirapine],activity towards HIV-1 strains with Y181C mutation,[4],inactive
